Earlier results on 4 compounds are cited in patent US8257686B2, “Compositions and methods relating to prevention of chemotherapy-induced alopecia” (HSF Pharmaceuticals S.A., priority 2000, dated 2012).

Each structure is given as a SMILES string.

This series deals with chemotherapy-induced hair loss. Particulars: review Dorr 1998; Sredni et al. 1996.

Take `C=C1/C(=C\C=C2/CCC[C@]3(C)[C@@H]([C@H](C)CCCC(C)(C)O)CC[C@@H]23)C[C@@H](O)C[C@@H]1O` [1,25-dihydroxyvitamin D3]: the “prevention of chemotherapy-induced hair loss” value is on record as “showed a marked sex preference”.

As to `Cl[TeH]1(Cl)(Cl)OCCO1` [AS101, ammonium trichloro (dioxy-ethylene-0,0′) tellurate], the “prevention of chemotherapy-induced hair loss” value is on record as “More promising results”.

As for `Cc1c(C)c2c(c(C)c1O)CC[C@@](C)(CCC[C@H](C)CCC[C@H](C)CCCC(C)C)O2` [alpha-tocopherol], the “prevention of chemotherapy-induced hair loss” value is “failed”.

In the case of `C=C1/C(=C\C=C2/CCC[C@]3(C)[C@@H]([C@H](C)CCCC(C)(C)O)CC[C@@H]23)C[C@@H](O)C[C@@H]1O` [calcitriol], the “prevention of chemotherapy-induced hair loss” value was “failed”.
